Laboratory results reported in patent US8192962B2, “Processes for detecting toxic substances” (Daikin Industries, Ltd., priority 2001, dated 2012).

Tested on: Energy system protein genes
Assay: DNA chip mRNA expression in yeast, energy system protein genes (Table 4)
Format: cell-based, Saccharomyces cerevisiae S288C
Outline: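 Expression change after 2 h toxicant exposure (growth-inhibiting, sub-lethal) of log-phase S. cerevisiae S288C at 25° C. Oligo-dT-purified mRNA was labeled with Cy3-dUTP or Cy5-dUTP and hybridized >12 h at 65° C. to a genome-wide chip; ratio of scanned fluorescence to control.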

Na2As [(1)]
The level of expressed mRNA in the presence of chemical substance/The level of expressed mRNA in the absence of chemical substance (yeast gene YJR048W): 1.3 | The level of expressed mRNA in the presence of chemical substance/The level of expressed mRNA in the absence of chemical substance (yeast gene YJR121W, cells incubated two hours with the chemical substance): 1.2 | The level of expressed mRNA in the presence of chemical substance/The level of expressed mRNA in the absence of chemical substance (yeast gene YJR155W): 7.6 | The level of expressed mRNA in the presence of chemical substance/The level of expressed mRNA in the absence of chemical substance (yeast gene YKL016C, cells incubated two hours with the chemical substance): 1.5 | The level of expressed mRNA in the presence of chemical substance/The level of expressed mRNA in the absence of chemical substance (yeast gene YKL060C, cells incubated two hours with the chemical substance): 1.7 | The level of expressed mRNA in the presence of chemical substance/The level of expressed mRNA in the absence of chemical substance (yeast gene YKL141W, cells incubated two hours with the chemical substance): 1.6 | The level of expressed mRNA in the presence of chemical substance/The level of expressed mRNA in the absence of chemical substance (yeast gene YKL148C, cells incubated two hours with the chemical substance): 0.9 | The level of expressed mRNA in the presence of chemical substance/The level of expressed mRNA in the absence of chemical substance (yeast gene YKR009C, cells incubated two hours with the chemical substance): 1.0 | The level of expressed mRNA in the presence of chemical substance/The level of expressed mRNA in the absence of chemical substance (yeast gene YKR058W, cells incubated two hours with the chemical substance, 25° C., YPD medium): 1.3 | The level of expressed mRNA in the presence of chemical substance/The level of expressed mRNA in the absence of chemical substance (yeast gene YKR097W): 1.6 | The level of expressed mRNA in the presence of chemical substance/The level of expressed mRNA in the absence of chemical substance (yeast gene YLL041C, cells incubated two hours with the chemical substance): 1.5 | The level of expressed mRNA in the presence of chemical substance/The level of expressed mRNA in the absence of chemical substance (yeast gene YLR038C, cells incubated two hours with the chemical substance): 2.6 | The level of expressed mRNA in the presence of chemical substance/The level of expressed mRNA in the absence of chemical substance (yeast gene YLR044C, cells incubated two hours with the chemical substance): 0.8 | The level of expressed mRNA in the presence of chemical substance/The level of expressed mRNA in the absence of chemical substance (yeast gene YLR134W, cells incubated two hours with the chemical substance): 0.9 | The level of expressed mRNA in the presence of chemical substance/The level of expressed mRNA in the absence of chemical substance (yeast gene YLR258W, cells incubated two hours with the chemical substance): 1.7 | The level of expressed mRNA in the presence of chemical substance/The level of expressed mRNA in the absence of chemical substance (yeast gene YLR284C, cells incubated two hours with the chemical substance): 0.9 | The level of expressed mRNA in the presence of chemical substance/The level of expressed mRNA in the absence of chemical substance (yeast gene YLR295C, cells incubated two hours with the chemical substance, 25° C., YPD medium): 1.5 | The level of expressed mRNA in the presence of chemical substance/The level of expressed mRNA in the absence of chemical substance (yeast gene YLR304C, cells incubated two hours with the chemical substance): 0.7 | The level of expressed mRNA in the presence of chemical substance/The level of expressed mRNA in the absence of chemical substance (yeast gene YLR345W): 1.4 | The level of expressed mRNA in the presence of chemical substance/The level of expressed mRNA in the absence of chemical substance (yeast gene YLR354C, cells incubated two hours with the chemical substance): 1.2 | The level of expressed mRNA in the presence of chemical substance/The level of expressed mRNA in the absence of chemical substance (yeast gene YLR377C, cells incubated two hours with the chemical substance): 1.1 | The level of expressed mRNA in the presence of chemical substance/The level of expressed mRNA in the absence of chemical substance (yeast gene YLR395C, cells incubated two hours with the chemical substance): 1.8 | The level of expressed mRNA in the presence of chemical substance/The level of expressed mRNA in the absence of chemical substance (yeast gene YML087C): 1.8 | The level of expressed mRNA in the presence of chemical substance/The level of expressed mRNA in the absence of chemical substance (yeast gene YML120C, cells incubated two hours with the chemical substance): 1.1 | The level of expressed mRNA in the presence of chemical substance/The level of expressed mRNA in the absence of chemical substance (yeast gene YML129C, cells incubated two hours with the chemical substance): 1.1 | The level of expressed mRNA in the presence of chemical substance/The level of expressed mRNA in the absence of chemical substance (yeast gene YMR073C, cells incubated two hours with the chemical substance): 1.1 | The level of expressed mRNA in the presence of chemical substance/The level of expressed mRNA in the absence of chemical substance (yeast gene YMR118C): 1.3 | The level of expressed mRNA in the presence of chemical substance/The level of expressed mRNA in the absence of chemical substance (yeast gene YMR205C, cells incubated two hours with the chemical substance): 0.5 | The level of expressed mRNA in the presence of chemical substance/The level of expressed mRNA in the absence of chemical substance (yeast gene YMR261C, cells incubated two hours with the chemical substance): 0.8 | The level of expressed mRNA in the presence of chemical substance/The level of expressed mRNA in the absence of chemical substance (yeast gene YMR267W, cells incubated two hours with the chemical substance, 25° C., YPD medium): 0.8 | The level of expressed mRNA in the presence of chemical substance/The level of expressed mRNA in the absence of chemical substance (yeast gene YMR323W, cells incubated two hours with the chemical substance): 0.8 | The level of expressed mRNA in the presence of chemical substance/The level of expressed mRNA in the absence of chemical substance (yeast gene YNL071W): 0.9 | The level of expressed mRNA in the presence of chemical substance/The level of expressed mRNA in the absence of chemical substance (yeast gene YNL202W, cells incubated two hours with the chemical substance): 0.7 | The level of expressed mRNA in the presence of chemical substance/The level of expressed mRNA in the absence of chemical substance (yeast gene YNL241C): 1.3 | The level of expressed mRNA in the presence of chemical substance/The level of expressed mRNA in the absence of chemical substance (yeast gene YNL331C): 8.6 | The level of expressed mRNA in the presence of chemical substance/The level of expressed mRNA in the absence of chemical substance (yeast gene YOL086C, cells incubated two hours with the chemical substance): 1.1 | The level of expressed mRNA in the presence of chemical substance/The level of expressed mRNA in the absence of chemical substance (yeast gene YOL165C): 10.1 | The level of expressed mRNA in the presence of chemical substance/The level of expressed mRNA in the absence of chemical substance (yeast gene YOR142W, cells incubated two hours with the chemical substance): 1.3 | The level of expressed mRNA in the presence of chemical substance/The level of expressed mRNA in the absence of chemical substance (yeast gene YOR178C, cells incubated two hours with the chemical substance): 1.4 | The level of expressed mRNA in the presence of chemical substance/The level of expressed mRNA in the absence of chemical substance (yeast gene YOR388C, cells incubated two hours with the chemical substance): 1.0 | The level of expressed mRNA in the presence of chemical substance/The level of expressed mRNA in the absence of chemical substance (yeast gene YPL031C, cells incubated two hours with the chemical substance): 0.9 | The level of expressed mRNA in the presence of chemical substance/The level of expressed mRNA in the absence of chemical substance (yeast gene YPL061W, cells incubated two hours with the chemical substance): 0.4 | The level of expressed mRNA in the presence of chemical substance/The level of expressed mRNA in the absence of chemical substance (yeast gene YPL088W): 3.3 | The level of expressed mRNA in the presence of chemical substance/The level of expressed mRNA in the absence of chemical substance (yeast gene YPL171C): 15.2 | The level of expressed mRNA in the presence of chemical substance/The level of expressed mRNA in the absence of chemical substance (yeast gene YPL240C): 0.7 | The level of expressed mRNA in the presence of chemical substance/The level of expressed mRNA in the absence of chemical substance (yeast gene YPL262W, cells incubated two hours with the chemical substance): 1.1 | The level of expressed mRNA in the presence of chemical substance/The level of expressed mRNA in the absence of chemical substance (yeast gene YPL275W, cells incubated two hours with the chemical substance): 0.6 | The level of expressed mRNA in the presence of chemical substance/The level of expressed mRNA in the absence of chemical substance (yeast gene YPL276W, cells incubated two hours with the chemical substance): 1.2 | The level of expressed mRNA in the presence of chemical substance/The level of expressed mRNA in the absence of chemical substance (yeast gene YPR048W, cells incubated two hours with the chemical substance): 1.3 | The level of expressed mRNA in the presence of chemical substance/The level of expressed mRNA in the absence of chemical substance (yeast gene YPR184W, cells incubated two hours with the chemical substance): 1.2
